Source: publication PMC8705783, “The Effect of Conjugation with Octaarginine, a Cell-Penetrating Peptide on Antifungal Activity of Imidazoacridinone Derivative” (International Journal of Molecular Sciences, 2021)
≈ marks a conversion by molar mass, not a printed value. Like-named read-outs stand apart in the source and are kept apart here. Blank lines part the entries; values can stand above or below the compound they belong to.

Experiments:
HEK-293 = test: cells; assay type: cell-based, human
Description: (§1) The investigated compounds were screened for their in vitro antiproliferative activity towards a human embryonic kidney cell line (HEK-293) and human liver cancer cell line (HEPG2) using colorimetric MTT.
(§2) The human embryonic kidney cell line (HEK-293) and human liver cancer cell line (HEPG2) were purchased from ATCC (Manassas, Virginia, USA). HEK-293 was cultured in Dulbecco’s Modified Eagle Medium (Corning, NY, USA) and HEPG2 in Minimum Essential Medium Eagle (Corning, NY, USA). For each cell line, the culture medium was supplemented with 10% fetal bovine serum, 2 mM L-glutamine, and antibiotics: penicillin 62.6 µg mL^−1 and streptomycin 40 µg mL^−1. The cells were cultured at the humidified atmosphere of 5% CO2/95% air and routinely tested for Mycoplasma contamination.
(§3) Antiproliferative activity of the compounds was determined by (3-(4,5-dimethylthiazol-2-yl)-2,5-diphenyltetrazolium bromide (MTT, Sigma-Aldrich, St. Louis, MO, USA) assay, which involves the assessment of cell viability by the measurement of the cellular oxidoreductase activity. Briefly, cells were seeded into 96-well culture plates and were allowed to adhere overnight. The investigated compounds were dissolved in DMSO and added to wells (1% final concentration of DMSO) in various concentrations. After 72 h incubation, 20 µL of MTT solution in PBS (4 mg mL^−1) was added to each well, and plates were incubated for an additional 3h in standard culture conditions. After that, the medium was aspirated, and formazan crystals were dissolved in DMSO. The absorbance was determined at 570 nm with a microplate reader (Asys UVM 340 Microplate Reader, Biochrom, Cambridge, UK). All experiments were performed three times independently in triplicate.

HEPG2 = test: cells; assay type: cell-based, human
Description: as §1, §2, §3

[1] = system: Candida albicans ATCC 10231
[2] = system: Candida glabrata ATCC 90030
Candida krusei ATCC 6258 [3] = system: Candida krusei ATCC 6258
[4] = system: Candida parapsilosis ATCC 22019
[5] = system: Saccharomyces cerevisiae ATCC 9763
Candida albicans B3 = conditions: B3, 12 h
Candida albicans B4 = conditions: B4, 12 h
Candida albicans Gu4 = conditions: Gu4, 12 h
Candida albicans Gu5 = conditions: Gu5, 12 h
Candida albicans F2 = conditions: F2, 12 h
Candida albicans F5 = conditions: F5, 12 h
HeLa cells = conditions: cited from earlier work
reference strains = test: Antifungal activity, summary over reference strains; assay type: cell-based; design: key to Antifungal Activity (level): (−) Means no antifungal activity; (±) low activity; (+) moderate activity; (++) high activity at the concentration mentioned
yeast topoisomerase II [6] = target: T1, yeast topoisomerase II (Saccharomyces cerevisiae, UniProt P06786); test: Yeast topoisomerase II relaxation assay; assay type: biochemical; conditions: supercoiled pBR322, tested at 1-200 μM
Description: Due to the known activity of acridine and acridone derivatives as human topoisomerase inhibitors widely analysed for cancer chemotherapy, we decided to analyse the influence of Compound 1 as well as its R8 conjugate on the fungal equivalent of that enzyme. The relaxation of supercoiled plasmid DNA by yeast topoisomerase II (yTOPO II) was studied in the presence of different concentrations of both compounds.
The inhibition of yeast topoisomerase II was analysed according to the relaxation assay kit from Inspiralis (Inspiralis Limited, Norwich, UK). Briefly, 250 ng of supercoiled pBR322 DNA (Thermo Fisher Scientific, Waltham, MA, USA), 1 mM ATP (Inspiralis Limited, UK), and 1–200 μM of the analysed compound were mixed with reaction buffer (1 mM Tris-HCl (pH 7.9), 10 mM KCl, 0.5 mM MgCl2, 0.2 % (by volume) glycerol). The reaction was initiated by the addition of an enzyme, allowed to proceed at 30 °C for 30 min and terminated by addition of 40% (m/V) sucrose, 100 mM Tris-HCl pH 8, 10 mM EDTA, and 0.5 mg mL^−1 Bromophenol Blue. Two-step extraction with chloroform:isoamyl alcohol (24:1, by volume) and butanol water was performed and mixtures were analysed on 1% agarose gel in 1 × TAE buffer, 3h, 4.5 V cm^−1. Gel was stained in GelRed 3 × staining solution (Biotium, Fremont, CA, USA) for 30 min and photographed with Gel Doc XR+Gel Documentation System (Bio-Rad: Hercules, CA, USA).

yeast topoisomerase II [7] = target: T1, yeast topoisomerase II; test: Formation of cleavable complexes in vitro; assay type: biochemical; conditions: 0.1-10 μM, pBR322 plasmid DNA
Description: Cleavage assay of yeast topoisomerase II was performed according to the formation of cleavable complexes kit from Inspiralis. The experimental conditions were the same as for the relaxation assay except for the amount of yeast topoisomerase II (16 times more enzyme was used). The reaction was initiated by the addition of the enzyme and allowed to proceed for 10 min at 30 °C. Then, 0.35% SDS and 0.3 mg mL^−1 proteinase K (A&A Biotechnology, Gdynia, Poland) was added, and the probes were incubated in 56 °C for 1 h. The reaction was terminated by the addition of 100 mM Tris-HCl pH 8, 10 mM EDTA, 0.5 mg mL^−1 Bromophenol Blue. Extraction with chloroform:isoamyl alcohol (24:1, by volume) was performed, and mixtures were analysed on the 1.2% agarose gel with 0.5 µg mL^−1 ethidium bromide in 1x TAE buffer, 18 h, 1.1 V cm^−1. Gel was photographed with the Gel Doc XR+Gel Documentation System.

HEK-293 and HEPG2 = test: Antiproliferative activity, MTT, both tested cell lines; assay type: cell-based; conditions: Homo sapiens; Table 5
Description: as §1
as §2, with “The cells were cultured at the humidified atmosphere of 5% CO2/95% air and routinely tested for Mycoplasma contamination.” left out
as §3, with “After that, the medium was aspirated, and formazan crystals were dissolved in DMSO. The absorbance was determined at 570 nm with a microplate reader (Asys UVM 340 Microplate Reader, Biochrom, Cambridge, UK). All experiments were performed three times independently in triplicate.” left out

Candida albicans = system: Candida albicans; design: method as in PMID 23563951; conditions: cited from earlier work
human topoisomerase II = conditions: cited from earlier work
Candida albicans cells = system: Candida albicans cells; design: method as in PMID 23563951; conditions: cited from earlier work
[8] = system: Candida albicans ATCC 10231; test: microbe, parasite or virus in culture; conditions: ATCC10231, 24 h, pH 7
[9] = system: Candida glabrata ATCC 90030; test: microbe, parasite or virus in culture; conditions: Nakaseomyces glabratus, ATCC90030, 24 h, pH 7
Candida krusei ATCC 6258 [10] = test: microbe, parasite or virus in culture; conditions: Pichia kudriavzevii, ATCC6258, 24 h, pH 7
[11] = system: Candida parapsilosis ATCC 22019; test: microbe, parasite or virus in culture; conditions: Lodderomyces parapsilosis, ATCC22019, 24 h, pH 7
[12] = system: Saccharomyces cerevisiae ATCC 9763; test: microbe, parasite or virus in culture; conditions: ATCC9763, 24 h, pH 7

T1 sequence (P06786 whole entry): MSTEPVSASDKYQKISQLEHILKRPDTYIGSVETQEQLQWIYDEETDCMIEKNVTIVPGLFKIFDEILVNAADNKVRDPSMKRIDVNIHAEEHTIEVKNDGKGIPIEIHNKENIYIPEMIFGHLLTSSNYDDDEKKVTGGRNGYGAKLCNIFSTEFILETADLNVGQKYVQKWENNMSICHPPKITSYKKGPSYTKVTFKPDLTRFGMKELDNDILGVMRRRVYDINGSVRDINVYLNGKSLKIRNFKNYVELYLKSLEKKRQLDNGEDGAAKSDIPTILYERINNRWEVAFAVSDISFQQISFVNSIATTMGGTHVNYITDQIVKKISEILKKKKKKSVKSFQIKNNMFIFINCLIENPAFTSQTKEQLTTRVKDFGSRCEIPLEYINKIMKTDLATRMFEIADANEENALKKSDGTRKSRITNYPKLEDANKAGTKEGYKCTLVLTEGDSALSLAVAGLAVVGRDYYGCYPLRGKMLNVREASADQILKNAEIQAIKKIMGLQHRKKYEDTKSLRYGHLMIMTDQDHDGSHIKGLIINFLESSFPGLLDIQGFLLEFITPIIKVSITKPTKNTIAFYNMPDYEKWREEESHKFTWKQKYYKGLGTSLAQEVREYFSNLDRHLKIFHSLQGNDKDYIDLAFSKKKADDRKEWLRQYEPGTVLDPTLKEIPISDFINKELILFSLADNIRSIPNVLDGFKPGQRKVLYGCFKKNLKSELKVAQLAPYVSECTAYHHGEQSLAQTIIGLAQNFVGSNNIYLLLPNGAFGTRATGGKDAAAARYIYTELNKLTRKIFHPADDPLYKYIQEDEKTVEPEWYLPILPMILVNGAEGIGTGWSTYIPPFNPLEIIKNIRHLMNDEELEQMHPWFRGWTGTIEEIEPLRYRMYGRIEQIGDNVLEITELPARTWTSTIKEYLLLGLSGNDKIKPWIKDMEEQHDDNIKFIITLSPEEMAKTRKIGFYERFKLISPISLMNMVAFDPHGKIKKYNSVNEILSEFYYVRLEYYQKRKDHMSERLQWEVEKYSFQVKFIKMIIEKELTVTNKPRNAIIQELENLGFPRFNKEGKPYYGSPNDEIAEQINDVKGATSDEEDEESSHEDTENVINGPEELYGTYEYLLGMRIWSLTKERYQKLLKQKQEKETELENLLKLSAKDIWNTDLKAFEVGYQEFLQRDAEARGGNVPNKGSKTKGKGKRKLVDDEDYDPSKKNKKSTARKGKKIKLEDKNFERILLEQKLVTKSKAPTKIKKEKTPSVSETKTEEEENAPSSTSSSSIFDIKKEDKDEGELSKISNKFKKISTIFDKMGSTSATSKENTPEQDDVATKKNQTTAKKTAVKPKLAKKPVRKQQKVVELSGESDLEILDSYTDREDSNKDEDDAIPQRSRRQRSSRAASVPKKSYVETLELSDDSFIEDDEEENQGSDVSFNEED

IC50 (HEPG2; 72 h): > 50000 nM
MIC90 ([1]; ATCC 10231, 18 h): >64 µg/mL
MIC90 ([1]; ATCC 10231, 24 h, pH 7): >64 µg/mL
MIC90 ([2]; ATCC 90030, 24 h, pH 7): >64 µg/mL
MIC90 (Candida krusei ATCC 6258 [3]; ATCC 6258, 24 h, pH 7): >64 µg/mL
MIC90 ([4]; ATCC 22019, 24 h, pH 7): 64 µg/mL (≈ 50.5 µM)
MIC90 ([5]; ATCC 9763, 24 h, pH 7): 64 µg/mL (≈ 50.5 µM)
MIC90 (Candida albicans B3): >64 µg/mL
MIC90 (Candida albicans B4): >64 µg/mL
MIC90 (Candida albicans Gu4): >64 µg/mL
MIC90 (Candida albicans Gu5): >64 µg/mL
MIC90 (Candida albicans F2): >64 µg/mL
MIC90 (Candida albicans F5): >64 µg/mL
Compound: N=C(N)NCCC[C@H](NC(=O)[C@H](CCCNC(=N)N)NC(=O)[C@H](CCCNC(=N)N)NC(=O)[C@H](CCCNC(=N)N)NC(=O)[C@H](CCCNC(=N)N)NC(=O)[C@H](CCCNC(=N)N)NC(=O)[C@H](CCCNC(=N)N)NC(=O)[C@@H](N)CCCNC(=N)N)C(=O)O [Compound R8, Octaarginine]
IC50 (HEK-293; 72 h): > 50000 nM
cytotoxicity (HeLa cells): no cytotoxicity

Compound: CCN(CC)CCNc1ccc2ncn3c4ccc(O)cc4c(=O)c1c23 [Compound C-1311, 5-((2-(Diethylamino)ethyl)amino)-8-hydroxy-6H-imidazo[4,5,1-de]acridin-6-one]
Antifungal Activity (level) (reference strains; Table 3): −
antifungal activity (reference strains; as reported in Table 1): no antifungal activity was observed
concentration that totally inhibited yeast topoisomerase II-mediated relaxation (yeast topoisomerase II [6]): 50 µM
formation of DNA–yeast topoisomerase II cleavable complexes (yeast topoisomerase II [7]): stimulated the formation of DNA–yeast topoisomerase II cleavable complexes
IC50 (HEK-293; Homo sapiens, HEK293, 72 h treatment, MTT, ± SD, read-out: IC50 (antiproliferative activity)): 8 ± 7 nM
IC50 (HEPG2; Homo sapiens, HEPG2, 72 h treatment, MTT, ± SD, read-out: IC50 (antiproliferative activity)): 129 ± 37 nM
IC50 (HEK-293 and HEPG2): ≤ 1000 nM
IC50 HEK293/MIC90 (mycostatic selectivity index) ([1]; HEK293 vs Candida albicans ATCC 10231, MIC converted to micromolar): <0.00005
IC50 HEPG2/MIC90 (mycostatic selectivity index) ([1]; HEPG2 vs Candida albicans ATCC 10231): <0.00078
IC50 HEK293/MIC90 (mycostatic selectivity index) ([2]; HEK293 vs Candida glabrata ATCC 90030): <0.00005
IC50 HEPG2/MIC90 (mycostatic selectivity index) ([2]; HEPG2 vs Candida glabrata ATCC 90030): <0.00078
IC50 HEK293/MIC90 (mycostatic selectivity index) (Candida krusei ATCC 6258 [3]; HEK293 vs Candida krusei ATCC 6258): <0.00005
IC50 HEPG2/MIC90 (mycostatic selectivity index) (Candida krusei ATCC 6258 [3]; HEPG2 vs Candida krusei ATCC 6258): <0.00078
IC50 HEK293/MIC90 (mycostatic selectivity index) ([4]; HEK293 vs Candida parapsilosis ATCC 22019): <0.00005
IC50 HEPG2/MIC90 (mycostatic selectivity index) ([4]; HEPG2 vs Candida parapsilosis ATCC 22019): <0.00078
IC50 HEK293/MIC90 (mycostatic selectivity index) ([5]; HEK293 vs Saccharomyces cerevisiae ATCC 9763): <0.00005
IC50 HEPG2/MIC90 (mycostatic selectivity index) ([5]; HEPG2 vs Saccharomyces cerevisiae ATCC 9763): <0.00078
antifungal activity (Candida albicans): no antifungal activity was observed
IC50 (hTOPO II inhibition) (human topoisomerase II): 2.5 µg/mL (≈ 7.13 µM)
IC50 (human topoisomerase II; read-out: IC50 (hTOPO II inhibition)): 6500 nM
accumulation in Candida albicans cells (Candida albicans cells): unable to accumulate in Candida albicans cells
MIC90 [8]: > 64 µg/mL
MIC90 [9]: > 64 µg/mL
MIC90 (Candida krusei ATCC 6258 [10]): > 64 µg/mL
MIC90 [11]: > 64 µg/mL
MIC90 [12]: > 64 µg/mL
